Measurements as given in US12497663B2, “Method of monitoring treatment” (LDN Pharma Limited, priority 2019, dated 2025).

System: CD3+ cells
Assay: Gene expression in CD3+ cells from CD14-ve PBMCs cultured with naltrexone (Illumina biochips)
Type: cell-based, human
Conditions: 4 h
Protocol: The RNA was then extracted from the cells using Trizol then isopropanol. The expression of the genes was measured using Illumina platform with biochips surveying the total human genome. […] The ratio of treated:untreated was calculated and the 25% change from untreated considered relevant.

O=C1CC[C@@]2(O)[C@H]3Cc4ccc(O)c5c4[C@@]2(CCN3CC2CC2)[C@H]1O5 [NTX, morphinan-6-one,17-(cyclopropylmethyl)-4,5-epoxy-3,14-dihydroxy-(5a)]
number of genes upregulated by LDN but unchanged by NTX (10 nM LDN vs 10 uM NTX, 19,571 genes called present, 25% change relevant): 223 genes
ACTB expression, LDN (10 nM naltrexone (LDN)): 156
ALDH4A1 expression, LDN (10 nM naltrexone (LDN)): 135
ASAP1 expression, LDN (10 nM naltrexone (LDN)): 97
BCLAF1 expression, LDN (10 nM naltrexone (LDN)): 130
BIRC3 expression, LDN (10 nM naltrexone (LDN)): 173
CASZ1 expression, LDN (10 nM naltrexone (LDN)): 167
CDC42SE2 expression, LDN (10 nM naltrexone (LDN)): 119
CDKN2AIP expression, LDN (10 nM naltrexone (LDN)): 93
DRAP1 expression, LDN (10 nM naltrexone (LDN)): 309
DYNLL2 expression, LDN (10 nM naltrexone (LDN)): 93
EIF2S3 expression, LDN (10 nM naltrexone (LDN)): 135
EIF3E expression, LDN (10 nM naltrexone (LDN)): 427
EIF4B expression, LDN (10 nM naltrexone (LDN)): 594
EZR expression, LDN (10 nM naltrexone (LDN)): 1218
FRG1 expression, LDN (10 nM naltrexone (LDN)): 99
H3F3A expression, LDN (10 nM naltrexone (LDN)): 616
HIST1H4C expression, LDN (10 nM naltrexone (LDN)): 1093
HPCAL1 expression, LDN (10 nM naltrexone (LDN)): 491
ITGB2 expression, LDN (10 nM naltrexone (LDN)): 719
KCTD6 expression, LDN (10 nM naltrexone (LDN)): 105
LSM5 expression, LDN (10 nM naltrexone (LDN)): 166
MAP4K1 expression, LDN (10 nM naltrexone (LDN)): 475
MORF4L1 expression, LDN (10 nM naltrexone (LDN)): 135
MTF1 expression, LDN (10 nM naltrexone (LDN)): 84
MYLK expression, LDN (10 nM naltrexone (LDN)): 166
NUCB1 expression, LDN (10 nM naltrexone (LDN)): 436
OR10A6 expression, LDN (10 nM naltrexone (LDN)): 152
PAH expression, LDN (10 nM naltrexone (LDN)): 135
PDCD4 expression, LDN (10 nM naltrexone (LDN)): 83
PECI expression, LDN (10 nM naltrexone (LDN)): 85
PRPF8 expression, LDN (10 nM naltrexone (LDN)): 464
PSME2 expression, LDN (10 nM naltrexone (LDN)): 144
PVRL2 expression, LDN (10 nM naltrexone (LDN)): 151
RASAL3 expression, LDN (10 nM naltrexone (LDN)): 356
S100A6 expression, LDN (10 nM naltrexone (LDN)): 240
SH3BGRL3 expression, LDN (10 nM naltrexone (LDN)): 327
SPOCK2 expression, LDN (10 nM naltrexone (LDN)): 1322
WDR75 expression, LDN (10 nM naltrexone (LDN)): 81
YWHAZ expression, LDN (10 nM naltrexone (LDN)): 809
ACTB L/U-score (10 nM naltrexone): U (increase)
ALDH4A1 L/U-score (10 nM naltrexone): U (increase)
ASAP1 L/U-score (10 nM naltrexone): D (reduction)
BCLAF1 L/U-score (10 nM naltrexone): D (reduction)
BIRC3 L/U-score (10 nM naltrexone): D (reduction)
CASZ1 L/U-score (10 nM naltrexone): U (increase)
CDC42SE2 L/U-score (10 nM naltrexone): D (reduction)
CDKN2AIP L/U-score (10 nM naltrexone): D (reduction)
DRAP1 L/U-score (10 nM naltrexone): U (increase)
DYNLL2 L/U-score (10 nM naltrexone): D (reduction)
EIF2S3 L/U-score (10 nM naltrexone): D (reduction)
EIF3E L/U-score (10 nM naltrexone): D (reduction)
EIF3M L/U-score (10 nM naltrexone): D (reduction)
EIF4B L/U-score (10 nM naltrexone): U (increase)
EZR L/U-score (10 nM naltrexone): U (increase)
FRG1 L/U-score (10 nM naltrexone): D (reduction)
H3F3A L/U-score (10 nM naltrexone): D (reduction)
HIST1H4C L/U-score (10 nM naltrexone): D (reduction)
HPCAL1 L/U-score (10 nM naltrexone): U (increase)
ITGB2 L/U-score (10 nM naltrexone): U (increase)
KCTD6 L/U-score (10 nM naltrexone): D (reduction)
LSM5 L/U-score (10 nM naltrexone): D (reduction)
MAP4K1 L/U-score (10 nM naltrexone): U (increase)
MORF4L1 L/U-score (10 nM naltrexone): D (reduction)
MTF1 L/U-score (10 nM naltrexone): D (reduction)
MYLK L/U-score (10 nM naltrexone): U (increase)
NUCB1 L/U-score (10 nM naltrexone): U (increase)
OR10A6 L/U-score (10 nM naltrexone): U (increase)
PAH L/U-score (10 nM naltrexone): U (increase)
PDCD4 L/U-score (10 nM naltrexone): D (reduction)
PECI L/U-score (10 nM naltrexone): D (reduction)
PRPF8 L/U-score (10 nM naltrexone): U (increase)
PSME2 L/U-score (10 nM naltrexone): D (reduction)
PVRL2 L/U-score (10 nM naltrexone): U (increase)
RASAL3 L/U-score (10 nM naltrexone): U (increase)
S100A6 L/U-score (10 nM naltrexone): U (increase)
SH3BGRL3 L/U-score (10 nM naltrexone): U (increase)
SPOCK2 L/U-score (10 nM naltrexone): U (increase)
WDR75 L/U-score (10 nM naltrexone): D (reduction)
YWHAZ L/U-score (10 nM naltrexone): U (increase)
ACTB expression, NTX (10 uM naltrexone (NTX)): 124
ALDH4A1 expression, NTX (10 uM naltrexone (NTX)): 95
ASAP1 expression, NTX (10 uM naltrexone (NTX)): 114
BCLAF1 expression, NTX (10 uM naltrexone (NTX)): 159
BIRC3 expression, NTX (10 uM naltrexone (NTX)): 226
CASZ1 expression, NTX (10 uM naltrexone (NTX)): 107
CDC42SE2 expression, NTX (10 uM naltrexone (NTX)): 161
CDKN2AIP expression, NTX (10 uM naltrexone (NTX)): 101
DRAP1 expression, NTX (10 uM naltrexone (NTX)): 178
DYNLL2 expression, NTX (10 uM naltrexone (NTX)): 115
EIF2S3 expression, NTX (10 uM naltrexone (NTX)): 146
EIF3E expression, NTX (10 uM naltrexone (NTX)): 601
EIF3M expression, NTX (10 uM naltrexone (NTX)): 131
EIF4B expression, NTX (10 uM naltrexone (NTX)): 423
EZR expression, NTX (10 uM naltrexone (NTX)): 841
FRG1 expression, NTX (10 uM naltrexone (NTX)): 124
H3F3A expression, NTX (10 uM naltrexone (NTX)): 739
HIST1H4C expression, NTX (10 uM naltrexone (NTX)): 1370
HPCAL1 expression, NTX (10 uM naltrexone (NTX)): 275
ITGB2 expression, NTX (10 uM naltrexone (NTX)): 443
KCTD6 expression, NTX (10 uM naltrexone (NTX)): 116
LSM5 expression, NTX (10 uM naltrexone (NTX)): 218
MAP4K1 expression, NTX (10 uM naltrexone (NTX)): 267
MORF4L1 expression, NTX (10 uM naltrexone (NTX)): 149
MTF1 expression, NTX (10 uM naltrexone (NTX)): 95
MYLK expression, NTX (10 uM naltrexone (NTX)): 124
NUCB1 expression, NTX (10 uM naltrexone (NTX)): 337
OR10A6 expression, NTX (10 uM naltrexone (NTX)): 120
PAH expression, NTX (10 uM naltrexone (NTX)): 95
PDCD4 expression, NTX (10 uM naltrexone (NTX)): 96
PECI expression, NTX (10 uM naltrexone (NTX)): 131
PRPF8 expression, NTX (10 uM naltrexone (NTX)): 353
PSME2 expression, NTX (10 uM naltrexone (NTX)): 180
PVRL2 expression, NTX (10 uM naltrexone (NTX)): 113
RASAL3 expression, NTX (10 uM naltrexone (NTX)): 186
S100A6 expression, NTX (10 uM naltrexone (NTX)): 112
SH3BGRL3 expression, NTX (10 uM naltrexone (NTX)): 271
WDR75 expression, NTX (10 uM naltrexone (NTX)): 95
YWHAZ expression, NTX (10 uM naltrexone (NTX)): 462
